# From US20220304945A1, “METHODS OF TREATING METABOLIC SYNDROME RELATED CONDITIONS USING RETINOIC ACID RECEPTOR AGONISTS” (Cornell University, priority 2014, published 2022)
# Entries after “also recorded” stand apart in the source; their conditions may differ.
# Legend:
# Assay type in all cases: in vivo, mouse
# [1] = test system: renal stellate cells (RSCs); assay: Double immunofluorescence (vimentin, α-SMA) of renal stellate cells in Db/Db mice; conditions: Db/Db mice treated for 4 weeks
# Description: Retinoic Acid Receptor β (RARβ) Agonists Diminish The Activation of Fibrogenic Kidney Stellate Cells. Given that we observed a significant decrease in mRNA transcripts of α-SMA we measured kidney protein expression of α-SMA in fibrogenic renal stellate cells Renal stellate cells (RSCs) are resident kidney fibroblasts, which in response to inflammation undergo differentiation to “activated” myofibroblasts that secrete contractile proteins such as α-SMA. […] RSCs express the mesenchymal protein marker vimentin. We used double immunofluorescence to label RSCs and determine the percentage of activated RSCs expressing the fibrogenic protein α-SMA. Using Db/Db mice, which spontaneously diabetes and DN in a similar manner to humans, we detected more than a 4-fold increase in activated α-SMA positive RSCs compared to wt con mice (FIG. 33F, G). Db/Db mice treated with AC261066 for 4 weeks had more than a 50% reduction in α-SMA positive RSCs (FIG. 33F, G).
# METHODS. Immunofluorescence and Immunostaining Microscopy-Paraffin embedded pancreatic tissue sections were incubated with antibodies against: insulin (mouse monoclonal 1:300, #1061, Beta Cell Biology Consortium), vimentin (rabbit polyclonal 1:500, Santa Cruz), or α-SMA (mouse monoclonal, 1:1000, Dako, Inc).
# [2] = test system: 4-HNE, oxidative stress in the kidneys; assay: 4-HNE staining of kidney, HF-fed mice; conditions: HF diet mice; vs high fat diet group
# Description: Mice, diet, and drug treatment. WT male C57/BL6 male mice were maintained on either a standard laboratory chow-fed diet (CFD) with 13% kcal fat, (diet #5053, Lab Diet, Inc, St. Louis, Mo.) or a high fat, western style diet (HFD) with 60% kcals from fat, (diet #58126, Lab Diet, Inc., St. Louis, Mo.) for 4 months. One month after the start of the high fat diet treatment, the high fat diet group was further split into 2 groups for 3 months: i) high fat diet and the drinking water containing 1% DMSO; ii) high fat diet and the drinking water containing 1.5 mg/100 ml AC261066, a specific RARβ agonist. Then mice were sacrificed by cervical dislocation. Blood and various tissue samples were harvested.
# 4-hydroxynonenal (4-HNE) staining. Paraffin-embedded sections (from two to four mice per group) were deparaffinized and rehydrated, and antigen retrieval was performed using an antigen unmasking solution (Vector Laboratories, H-3300). After quenching endogenous peroxidase with 3% H2O2, the tissue sections were blocked with the blocking reagent (from the M.O.M. kit from Vector Laboratories). Then, tissue sections were incubated with a 4-HNE antibody (1:400; mouse monoclonal antibody; Abcam, ab48506) overnight at 4° C. The sections were then incubated with secondary antibodies (1:200, anti-mouse IgG from the M.O.M kit). […]
# [3] = test system: PPARα, CPT1-α, CPT2, ACAT1, FASN, SREBP1, ACC1, HSL, PLIN, ADIPOQ mRNA; assay: Q-PCR of lipid metabolism genes in liver, pancreas and adipose tissue; conditions: Wt and Ob/Ob mice, pancreas, adipose
# Experimental: RNA Isolation and cDNA Synthesis-Total RNA was isolated from whole pancreas and small intestine homogenates using RNeasy mini kits (Qiagen, Valencia, Calif.) and quantified using a Nano Drop 2000 spectrophotometer (Thermo Scientific, Wilmington, Del.). Total RNA (2 μg) was used to synthesize cDNA with random primers using a qScript cDNA synthesis kit (Quanta Biosciences, Gaithersburg, Md.).
# Quantitative RT-PCR (Q-PCR)-Q-PCR was performed using SYBR Green PCR master mix on a Bio-Rad MyiQ2 Real Time PCR iCycler (Bio-Rad, Inc. Hercules, Calif.). Gene specific primers (Table 5) were used to amplify mRNA target genes, which were normalized to Hprt internal control genes. cDNA from 3-5 mice per experimental group was analyzed for relative mRNA fold changes, calculated using the Pfaffl method (Pfaffl M W, A new mathematical model for relative quantification in real-time RT-PCR, Nucleic Acids Res. 2001 May 1; 29(9):e45). Relative gene expression values are reported as mean±standard error of the mean (S.E.M) and P-values calculated using one-way analysis of variance followed by Bonferroni multiple comparison test post-hoc analysis.
# [4] = test system: c-peptide; assay: c-peptide/glucagon immunofluorescence of pancreatic islets, HF-fed mice; conditions: HF diet mice 4 months; vs HF diet
# Experimental: Indirect Immunofluorescence. Immunofluorescence assays on cells and tissue sections were performed as previously described (29). Briefly, differentiated samples were fixed using 4% (w/v) paraformaldehyde and membrane permeabilization (for cells only) was done with 0.3% (w/v) Triton-X 100 (Sigma). Unspecific sites were blocked using 2% BSA for 30 min prior to incubation with rabbit polyclonal anti-PDX1 (Millipore, 06-1379, 1:1000), rabbit anti-C-Peptide (Cell Signaling, 4593, 1:500, Danvers, Mass.) and mouse monoclonal anti-Glucagon (Abcam, ab10988, 1:200) primary antibodies. Phalloidin-TRITC (Millipore, FAK100, 1:1000, Billerica, Mass.) was used to stain the actin stress fiber network (F-actin). Nuclei were stained using DAPI contained in Vectashield® mounting medium for fluorescence (Vector labs, Burlingame, Calif.). Quantitation of C-peptide positive stained cells and islet surface area was performed using NIS-Elements Advanced Research software (Nikon).
# Mice, diet, and drug treatment. WT male C57/BL6 male mice were maintained on either a standard laboratory chow-fed diet (CFD) with 13% kcal fat, (diet #5053, Lab Diet, Inc, St. Louis, Mo.) or a high fat, western style diet (HFD) with 60% kcals from fat, (diet #58126, Lab Diet, Inc., St. Louis, Mo.) for 4 months. […]
# [5] = test system: RARβ2 mRNA; assay: Semi-quantitative PCR of pancreas, LRAT −/− vitamin A deficient mice; conditions: treated 8 weeks
# Experimental: FIG. 10. Gene expression of RARβ2 in pancreatic tissue from LRAT −/− vitamin A sufficient mice (VAS, normal control diet), LRAT −/− vitamin A deficient (VAD) mice, and LRAT −/− vitamin A deficient (VAD) mice treated with AC261066 for 8 weeks.
# Semi-Quantitate PCR. Total RNA was extracted from mouse tissues using TRIzol reagent (Life technologies) and (1 μg) was used to synthesize cDNA. cDNA synthesis was performed at 42° C. for 1 h in a final volume of 20 μl using qScript (Quanta, MD). Semi-quantitative PCR were performed Taq DNA polymerase (Invitrogen, CA). Three step PCR was run as follows: 94° C. for 30 s, 58-64° C. for 45 s for primer annealing and 72° C. for 1 min for primer extension. The number of cycles for each primer pair for amplification in the linear range was determined experimentally. PCR products were resolved on 2% agarose gels and visualized by staining with ehtidium bromide. Primers for gene expression used were as follows: […]
structure (smiles),measurement,setting,value
CCCCOCCOc1nc(-c2ccc(C(=O)O)c(F)c2)sc1C [AC261066],reduction in α-SMA positive RSCs,[1],> 50%
same,"4-HNE level (oxidative stress, ROS) in kidneys",[2],reduces oxidative stress; also recorded: lower
same,tissue expression of genes involved in lipogenesis and mitochondrial oxidation of lipids,[3],alters
same,c-peptide level in pancreatic islets,[4],slightly reduces; also recorded: slightly decreased
same,pancreatic RARβ2 mRNA level,[5],increased
